Here are results for 51 molecules from PubChem BioAssay AID179 (DTP/NCI, 2004).

As a reminder, the EC50 is the midpoint of the concentration-response curve. What is called IC50 is the concentration needed to halve the response being measured. Read a high IC50 as a need for much substance.

Calls of active or inactive are those of the source.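 The calls were made as follows: active = compounds giving half or more protection of infected cells from virus-caused growth loss, again on retest; inactive = the rest.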

The assay has as its system CEM cells HIV-1 protection, formazan growth assay. The experiment in a line: NCI AIDS Antiviral Assay. The following applies: for IC50: measured here: growth of uninfected CEM cells. In a few lines: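 Five concentrations of each compound were applied to infected and uninfected human CEM cells. Protection from HIV-1 was judged from growth measured with a soluble formazan assay.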

`COc1cccc(C2C(C(=O)O)=C(CO)Oc3cc4c(cc32)OCO4)c1` (stereo not given): the result was inactive.

For `CCOc1ccnc2c(OC)c(C)c3nc4ccccc4nc3c12`, the EC50 is more than 100 µM and the IC50 is more than 100 µM.

For the molecule `Cc1nnc2sc(/C=C/c3ccccc3)nn12`, the outcome was inactive and the IC50 was more than 200 µM.

With `CC[C@]1(Cc2ccc(OC)c(OC)c2)[C@@H]2C[C@@H](C(=O)OC)ON2O[C@H](OC2CCCC2(c2ccccc2)c2ccccc2)[C@@H]1OC(C)=O` (stereo not given in full), the EC50 is more than 200 µM and the IC50 came to 21.4 µM.

As to `O=C1NC(O)n2c(=O)[nH]c(=O)n21` (stereo not given), the result was inactive.

With `CCOC(=O)C(=O)/C(=C/N1CC(=O)NC1=S)C(=O)OCC`, the EC50 is more than 200 µM and the IC50 is more than 200 µM.

In the case of `CCCCCCOC(=O)CC1CC(C(C)=O)C1(C)C` (stereo not given), the EC50 is more than 200 µM and the IC50 was more than 200 µM.

In the case of `O=S1(=O)CC2OC(c3ccccc3)OC2C1` (stereo not given), the EC50 is more than 537 µM and the IC50 is more than 537 µM.

Consider `Nn1c(-c2ccccc2)n[nH]c1=O`, for which the EC50 is more than 200 µM and the IC50 is more than 200 µM.

Turning to `CC(C)(C)C1CCC2c3c([nH]c4ccccc34)C3C(=O)N(c4ccc(Cl)cc4)C(=O)C3C2C1` (stereo not given), the EC50 is more than 200 µM and the IC50 is more than 100 µM.

Regarding `CC(C)(C)C1CCC2(CC1)CCN(CCCN1CCOCC1)CC2`, the EC50 was more than 55 µM and the IC50 worked out at 12.3 µM.

With `Nc1ccccc1S(=O)c1ccccc1` (stereo not given), the EC50 is more than 275 µM and the IC50 was more than 275 µM.

Turning to `CCCN(CCCCC(NC(C)=O)C(=O)NCc1ccccc1)C(=O)NC` (stereo not given), the EC50 is more than 661 µM and the IC50 is more than 661 µM.

As to `Fc1cccc(F)c1C1SCc2nc3cc4ccccc4cc3n21` (stereo not given), the EC50 was more than 200 µM and the IC50 turned out to be 24.5 µM.

Consider `C=CC[C@]12C=C(OC)[C@@H](O)[C@](OC)(C(c3cc(OC)c4c(c3)OCO4)[C@H]1C)[C@H]2OC(C)=O` (stereo not given in full), for which the EC50 is more than 200 µM and the IC50 amounted to 129 µM.

For the molecule `COC(=O)/C(=N\Nc1nc(=S)[nH]n1N)C(C#N)c1ccccc1` (stereo not given), the EC50 was more than 178 µM and the IC50 was more than 178 µM.

For the molecule `COc1cccc(/C=C\C#N)c1`, the EC50 was more than 316 µM and the IC50 was more than 316 µM.

As to `CN(C)[C@@H]1C(=O)C(C(=O)NCNC(CO)(CO)CO)=C(O)[C@@]2(O)C(=O)C3=C(O)c4c(O)cccc4[C@@](C)(O)[C@H]3C[C@@H]12`, the EC50 was more than 42.7 µM and the concentration for half-maximal inhibition (IC50) stood at 33.9 µM.

In the case of `O=S1Cc2nc3ccccc3n2C1c1c(F)cccc1F` (stereo not given), the EC50 is more than 117 µM.

For the molecule `O=C1CS(=O)(=O)C2(CCCCC2)C(=O)N1`, the EC50 is more than 200 µM and the IC50 is more than 200 µM.

For the molecule `C=C(C)[C@H]1CC(=O)[C@@]2(C)C[C@H]3O[C@]3(C)CC/C=C(\C)CC[C@H]12`, the EC50 was more than 200 µM and the IC50 amounted to 55 µM.

On to `FC(F)(F)c1cc(C2SCc3nc4ccccc4n32)cc(C(F)(F)F)c1` (stereo not given), for which the EC50 is more than 41.7 µM and the IC50 worked out at 7.08 µM.

In the case of `CC([C@H]1CCC2[C@@H]3CCC4C(=O)C(NC(=O)c5ccccc5)=CC[C@]4(C)C3CC[C@@]21C)N(C)C` (stereo not given in full), the EC50 is more than 4.37 µM and the IC50 was 1.32 µM.

Turning to `CCCNC(=O)Nc1c([N+](=O)[O-])cc(C(F)(F)F)cc1[N+](=O)[O-]`, the outcome was inactive.

As to `O=C(NCCCl)N1CCC(CN=c2cc3n(-c4ccc(Cl)cc4)c4ccccc4nc-3cc2Nc2ccc(Cl)cc2)CC1`, the EC50 was more than 100 µM and the IC50 was 17 µM.

`Cn1cc(NC(=O)Nc2cc(C(=O)Nc3cc(C(=O)Nc4cc(C(=O)Nc5ccc6cc(S(=O)(=O)O)cc(S(=O)(=O)O)c6c5)n(C)c4)n(C)c3)n(C)c2)cc1C(=O)Nc1cc(C(=O)Nc2cc(C(=O)Nc3ccc4cc(S(=O)(=O)O)cc(S(=O)(=O)O)c4c3)n(C)c2)n(C)c1`: the EC50 is 0.977 µM and the IC50 stood at 117 µM.

Take `Cc1nc(N)sc1C(=O)Nc1ncn[nH]1`: the EC50 was more than 200 µM and the IC50 was found to be 117 µM.

For the molecule `CC(=O)OC1CN2CC[C@H](O)C2C(O)[C@@H]1O` (stereo not given in full), the EC50 was 41.7 µM and the IC50 came to 1070 µM.

As to `O=C1OCC2OC(O)C(O)C(O)C2OC(=O)c2cc(O)c(O)c(O)c2-c2c(O)c(O)c3oc(=O)c4c(c(O)c(O)c5oc(=O)c2c3c54)-c2c1cc(O)c(O)c2O` (stereo not given), the EC50 was 4.17 µM and the IC50 is 14.8 µM.

Turning to `CN(CCSSCCN(C)/N=C/c1ccccc1)/N=C/c1ccccc1`, the EC50 was more than 200 µM and the IC50 is more than 200 µM.

For `COC(=O)[C@H]1CO[C@@H](C(C)(C)C)N1C(=O)N1C=CC(=O)C[C@@H]1C`, the EC50 is more than 200 µM and the IC50 is more than 200 µM.

In the case of `CCCOc1ccc(/C(Cl)=C(\C=O)c2ccc(OC)c(OC)c2)cc1OCCC`, the EC50 is more than 4.79 µM and the IC50 was more than 4.79 µM.

Turning to `O=C(c1ccccc1)n1[nH]c(=O)n(-c2ccc(Cl)cc2)c1=O`, the EC50 was more than 200 µM and the IC50 was more than 200 µM.

On to `O=C1CCC(c2ccccc2)(C2(c3ccccc3)CCC(=O)O2)O1` (stereo not given), for which the EC50 is more than 200 µM and the half-inhibitory concentration (IC50) was 151 µM.

In the case of `CC[P+]1(c2ccccc2)[C@@H](C)CC[C@@H]1C`, the EC50 was more than 200 µM and the IC50 was determined as 91.2 µM.

In the case of `CCOC(=O)c1[nH]n(-c2ccccc2)c(=O)c1/C=N/C(=S)NCCc1ccc(OC)c(OC)c1`, the EC50 was more than 200 µM and the IC50 stood at 51.3 µM.

For `O=Cc1ccc2c(c1-c1c(C=O)ccc3c1OCO3)OCO2`, the EC50 is more than 170 µM and the IC50 was 79.4 µM.

`CC(C)=C/C=C1/CS(=O)(=O)C=C1C`: the EC50 was more than 200 µM and the IC50 was 135 µM.

In the case of `O=C1c2ccccc2C(=O)c2c(NCCCNCCO)ccc(NCCCNCCO)c21`, the outcome was inactive.

For the molecule `CC12C(C(=O)O)C(=O)C(C(=O)O)C1(C)C(C(=O)O)C(=O)C2C(=O)O` (stereo not given), the EC50 was more than 525 µM and the IC50 turned out to be 398 µM.

Regarding `COc1cc2c(cc1O)C1C(O2)c2cc3c(cc2OC1(C)C)OC(C)(C)CC3` (stereo not given), the EC50 is more than 200 µM and the IC50 was 28.8 µM.

Regarding `O=Cc1ccc2c(c1)CC1(C2)Cc2ccc3c(c2C1)CCC3` (stereo not given), the EC50 is more than 200 µM and the IC50 turned out to be 7.41 µM.

Consider `CC(=O)[C@]1(O)Cc2c(O)c3c(c(O)c2[C@@H](OC2CC(N)C(O)C(C)O2)C1)C(=O)c1c(OCc2ccccc2)cccc1C3=O` (stereo not given in full), for which the result was inactive.

Regarding `Cc1ccc2c(c1)[n+]([O-])c(N)n[n+]2[O-]`, the EC50 was more than 200 µM and the IC50 turned out to be 19.1 µM.

Consider `[O-]/[N+](=C\c1ccccc1)[C@H](COCc1ccccc1)c1ccccc1`, for which the EC50 was more than 77.6 µM and the IC50 is more than 77.6 µM.

For the molecule `Nc1ncccc1N1C(=O)c2ccccc2C1=O`, the EC50 was more than 200 µM and the IC50 was more than 200 µM.

As to `O=C1OCCC1C(O)C1c2ccccc2-c2ccccc21` (stereo not given), the EC50 is more than 339 µM and the IC50 was more than 339 µM.

Turning to `CCOC(=O)COc1ccc(OC)c2c1C(=O)CCC2`, the outcome was inactive.

Take `CSC(=S)Nc1cc(C)ccn1`: the EC50 was more than 200 µM and the IC50 stood at 155 µM.

Consider `CO[C@@H]1O[C@H](C(=O)c2ccccc2)[C@H]2OC(C)(C)O[C@@H]12`, for which the EC50 is more than 200 µM and the IC50 was 45.7 µM.

For `CCCCCCCCCC1CC(=O)OC2=C1C(=O)CCC2` (stereo not given), the EC50 was more than 46.8 µM and the IC50 was more than 46.8 µM.
